Experimental data: patent publication US7790740B2 (priority 2003, dated 2010)
Where two headings read alike, the source gives them in different places.

How the values were obtained:
[1] = tested on: HIV-1 fusion; assay: gp160 induced cell-cell fusion assay (HeLa P4 / CHO-Tat10); format: cell-based; details: Human immunodeficiency virus 1, HeLaP4, read-out: IC50 against HIV-1 fusion (gp160 induced cell-cell fusion)
Protocol: The gp160 induced cell-cell fusion assay uses a HeLa P4 cell line and a CHO-Tat10 cell line.
The HeLa P4 cell line expresses CCR5 and CD4 and has been transfected with HIV-1 LTR-β-Galactosidase. The media for this cell line is Dulbecco modified eagle's medium (D-MEM) (without L-glutamine) containing 10% foetal calf serum (FCS), 2 mM L-glutamine penicillin/streptomycin (Pen/Strep; 100 U/mL penicillin+[…] streptomycin), and 1 μg/ml puromycin.
The CHO cell line is a Tat (transcriptional trans activator)-expressing clone from a CHO JRR17.1 cell line that has been transfected with pTat puro plasmid. […]
Upon cell fusion, Tat present in the CHO cell is able to transactivate the HIV-1 long terminal repeat (LTR) present in the HeLa cell leading to the expression of the β-Galactosidase enzyme. This expression is then measured using a Fluor Ace™ β-Galactosidase reporter assay kit (Bio-Rad cat no. 170-3150). This kit is a quantitative fluorescent assay that determines the level of expression of β-galactosidase using 4-methylumbelliferul-galactopyranoside (MUG) as substrate. β-Galactosidase hydrolyses the fluorogenic substrate resulting in release of the fluorescent molecule 4-methylumbelliferone (4 MU). Fluorescence of 4-methylumbelliferone is then measured on a fluorometer using an excitation wavelength of 360 nm and emission wavelength of 460 nm. […]

[2] = target: CCR5 (Homo sapiens, UniProt P51681); assay: assay for CCR5 binding according to Combadiere et al
Chain of CCR5 (P51681 whole entry): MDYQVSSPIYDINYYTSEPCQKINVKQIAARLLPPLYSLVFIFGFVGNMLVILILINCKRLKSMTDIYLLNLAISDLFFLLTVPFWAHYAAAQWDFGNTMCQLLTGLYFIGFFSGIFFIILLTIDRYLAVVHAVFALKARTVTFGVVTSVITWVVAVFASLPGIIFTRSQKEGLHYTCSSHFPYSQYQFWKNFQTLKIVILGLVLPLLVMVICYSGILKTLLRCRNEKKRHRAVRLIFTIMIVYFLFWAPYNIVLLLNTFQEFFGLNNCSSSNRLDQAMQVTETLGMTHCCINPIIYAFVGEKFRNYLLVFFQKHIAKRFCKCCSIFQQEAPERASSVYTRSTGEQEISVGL
Source text: Biol., 60, 147-52 (1996); and/or by using the intracellular calcium mobilisation assays as described by the same authors. Cell lines expressing the receptor of interest include those naturally expressing the receptor, such as PM-1, or IL-2 stimulated peripheral blood lymphocytes (PBL), or a cell engineered to express a recombinant receptor, such as CHO, 300.19, L1.2 or HEK-293.

Row | IC50 ([2]; ligand MIP-1α, read-out: IC50 CCR5 binding (MIP-1α)) [nM] | IC50 ([2]; ligand MIP-1β, read-out: IC50 CCR5 binding (MIP-1β)) [nM] | IC50 ([2]; ligand RANTES, read-out: IC50 CCR5 binding (RANTES)) [nM] | SMILES | IC50 [1] [nM] | IC50 ([2]; IC50 CCR5 binding (MIP-1α), ligand MIP-1α) [nM] | IC50 ([2]; IC50 CCR5 binding (MIP-1β), ligand MIP-1β) [nM] | IC50 ([2]; IC50 CCR5 binding (RANTES), ligand RANTES) [nM]
1 | – | – | – | CC(=O)N[C@@H](CCN1[C@@H]2CC[C@H]1C[C@@H](n1c(C)nc3c1CCN(C(C)=O)C3)C2)c1cccc(F)c1 [Example 1, N-{(1S)-3-[3-endo-(5-Acetyl-2-methyl-4,5,6,7-tetrahydro-1H-imidazo[4,5-c]pyridin-1-yl)-8-azabicyclo[3.2.1]oct-8-yl]-1-(3-fluorophenyl)propyl}acetamide] | 0.13 | – | – | –
2 | 7.5 | 7.3 | 6.7 | CC(=O)N[C@@H](CCN1[C@@H]2CC[C@H]1C[C@@H](n1c(C)nc3c1CCN(C(=O)C(C)C)C3)C2)c1cccc(F)c1 [Example 4, N-{(1S)-3-[3-endo-(5-Isobutyryl-2-methyl-4,5,6,7-tetrahydro-1H-imidazo[4,5-c]pyridin-1-yl)-8-azabicyclo[3.2.1]oct-8-yl]-1-(3-fluorophenyl)propyl}acetamide] | – | – | – | –
3 | – | – | – | CCC(=O)N1CCc2c(nc(C)n2[C@H]2C[C@H]3CC[C@@H](C2)N3CC[C@H](NC(C)=O)c2cccc(F)c2)C1 [Example 5, N-{(1S)-3-[3-endo-(2-Methyl-5-propionyl-4,5,6,7-tetrahydro-1H-imidazo[4,5-c]pyridin-1-yl)-8-azabicyclo[3.2.1]oct-8-yl]-1-(3-fluorophenyl)propyl}acetamide] | 0.12 | 2.7 | 2.4 | 1.9
